Columns and labels:
[1] = target: T1, recombinant human plasminogen activator inhibitor-1 (Homo sapiens, UniProt P05121); test: Primary screen for the PAI-1 inhibition (residual tPA activity, chromogenic Spectrozyme-tPA); assay type: biochemical; settings: 25 uM test compound; pH 6.6 buffer, 140 nM PAI-1, 70 nM tPA
T1 construct: purchased Molecular Innovations, Royal Oak, Mich
Protocol: Primary Screen for the PAI-1 Inhibition
Test compounds were dissolved in DMSO at a final concentration of 10 mM, then diluted 100× in physiologic buffer. The inhibitory assay was initiated by the addition of the test compound (1-100 μM final concentration, maximum DMSO concentration of 0.2%) in a pH 6.6 buffer containing 140 nM recombinant human plasminogen activator inhibitor-1 (Molecular Innovations, Royal Oak, Mich.). Following a 1 hour incubation at room temperature, 70 nM of recombinant human tissue plasminogen activator (tPA) was added, and the combination of the test compound, PAI-1 and tPA was incubated for an additional 30 minutes. Following the second incubation, Spectrozyme-tPA (American Diagnostica, Greenwich, Conn.), a chromogenic substrate for tPA, was added and absorbance was read at 405 nm at 0 and 60 minutes. Relative PAI-1 inhibition was equal to the residual tPA activity in the presence of the test compound and PAI-1. Control treatments included the complete inhibition of tPA by PAI-1 at the molar ratio employed (2:1), and the absence of any effect of the test compound on tPA alone.

T1 sequence (P05121 24-402): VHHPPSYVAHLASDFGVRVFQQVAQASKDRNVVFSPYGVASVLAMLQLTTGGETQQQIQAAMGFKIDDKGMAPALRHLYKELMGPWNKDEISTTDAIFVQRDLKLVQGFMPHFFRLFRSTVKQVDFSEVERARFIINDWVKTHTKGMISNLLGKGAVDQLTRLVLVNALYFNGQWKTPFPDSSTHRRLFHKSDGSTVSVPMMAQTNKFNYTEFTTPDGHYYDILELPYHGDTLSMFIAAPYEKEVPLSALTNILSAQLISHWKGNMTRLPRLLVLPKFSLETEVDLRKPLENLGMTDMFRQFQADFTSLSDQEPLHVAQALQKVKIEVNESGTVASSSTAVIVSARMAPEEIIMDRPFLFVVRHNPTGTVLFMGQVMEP

Structure (SMILES)	inhibition at 25 µM [1]	melting point
O=C(O)Cn1cc(C(=O)c2ccc(Cl)cc2)c2cc(-c3ccc(Cl)cc3)ccc21 [Example 1, [3-(4-chlorobenzoyl)-5-(4-chlorophenyl)-1H-indol-1-yl]acetic acid]	47%	255 to 257 °C
Cc1ccc(-c2ccc3c(c2)c(C(=O)c2cc4ccccc4s2)cn3CC(=O)O)cc1 [Example 2, [3-(Benzo[b]thiophene-2-carbonyl)-5-(4-methylphenyl)-1H-indol-1-yl]-acetic acid]	45%	
Cc1ccc(-c2ccc3c(c2)c(C(=O)c2ccc(Cl)cc2)cn3CC(=O)O)cc1 [Example 3, [3-(4-chlorobenzoyl)-5-(4-methylphenyl)-1H-indol-1-yl]-acetic acid]	46%	
